{
  "source": "patent US9963518B2",
  "about": "“Cyclic oligosaccharides for use in the treatment and prevention of bacterial infection” (priority 2011, dated 2018)",
  "key": {"E. coli strain E69 [1]": {"test_system": "E. coli strain E69", "assay": "Complement-mediated killing of bacteria in human serum", "type": "cell-based", "details": "for Complement-mediated killing of E69: 40% normal human serum, 1 h, 37° C.", "protocol": "This assay measured the killing of bacteria by the compounds of the invention mediated by the human complement system found in serum (incubation time 1 h, RPMI 1640, 37° C.). 10^3 cells of E. coli strain E69 or CWG281 were cultured in 40% (v/v) normal human serum (NHS, 1 mL, TCS Biosciences, CR100) or deactivated human serum (DHS) in RPMI 1640 medium (Sigma Aldrich, R8758) in 1.5 mL tubes in the presence of different concentrations of am8γCD (compound 13) at 37° C. for 1 h or 4 h. DHS was generated by heating NHS at 56° C. for 30 min. For the one-hour experiment, a portion of each culture (50 μL) was then spread onto a freshly prepared LB-Agar plate; for the four-hour experiment, the culture was firstly diluted 100 times (0, 1, 10, 40 μM), 10 times (100 μM) or not diluted (300 μM and 1 mM), and then a portion of each resulting culture (50 μL) was then spread onto a freshly prepared LB-Agar plate. The plates were incubated at 37° C. for 10 h after which colonies were counted. The total colonies of each sample were calculated by colonies/plate multiplying by times of dilution. P values were calculated from a one-tailed Student's t-test."}, "E. coli strain E69 [2]": {"test_system": "E. coli strain E69", "assay": "LPS exposure assay, O9a LPS to O9a LPS-specific antibodies (FACS)", "type": "cell-based", "protocol": "The direct effect of the inhibition of K30 CPS transport on E. coli strain E69 is the appearance of defects in the capsule layer. This should in turn lead to exposure of O9a LPS at the cell surface. To test this hypothesis, the attachment of rabbit anti-O9a antibodies was quantified by flow cytometry (FACS), by using secondary fluorescent anti-rabbit antibodies. The design of the experiment is depicted schematically in FIG. 4a.\nE. coli strains E69 and CWG281 were grown as described above in Example 4 and the OD600 was adjusted to 0.4. The concentrations of cyclodextrin (either am8γCD (compound 13), am6αCD (compound 3) or am7βCD (compound 10)) present in the growth media were 10 nM, 100 nM, 1 μM, 10 μM, 50 μM, 100 μM and 1 mM. 50 μL samples of each were centrifuged at 3,000×g for 10 min to remove the medium, washed with PBS and resuspended in 50 μL PBS. O9a antiserum (0.5 μL) was then added. The mixtures were incubated on ice for 1 h (to compare the effects of am6αCD, am7βCD and am8γCD on the exposure of LPS) or 2 h (for the estimation of minimum effective concentration of am8γCD required to expose LPS to antibodies), followed by centrifugation at 3,000×g for 10 min and washing with PBS. The pellets were resuspended in PBS (50 μL), to which Alexa Fluor 488 Goat Anti-Rabbit IgG secondary antibody (1 μL, Life Technologies, A11034, λex 495 nm, λem 519 nm) was added, followed by incubation for 1 h on ice. The cells were then centrifuged at 3,000×g for 10 min. The pellets were resuspended in PBS (1 mL), followed by analysis by flow cytometry (FACS) using a Becton-Dickinson FACSCalibur. 10,000 cells were analysed for each sample. Fluorescence was measured in the FL1 channel (530 nm)."}, "mutant Wza ΔP106-A107": {"biological_target": "mutant Wza ΔP106-A107 (Escherichia coli, UniProt Q9X4B7, DEL106-107)", "assay": "Single-channel electrical recording, mutant Wza ΔP106-A107", "type": "binding, E. coli", "details": "n = 3, read-out: Dissociation constant (Kd) with mutant Wza pore"}, "mutant Wza Y110G": {"biological_target": "mutant Wza Y110G (Escherichia coli, UniProt Q9X4B7, Y110G)", "assay": "Single-channel electrical recording, mutant Wza Y110G", "type": "binding, E. coli", "details": "n = 3, read-out: Dissociation constant (Kd) with mutant Wza pore", "protocol": "Thirteen commercial cyclodextrins (CDs) were tested for their ability to block WT-Wza and the mutant Y110G/K375C (Table 1) including, neutral, negatively charged or positively charged cyclodextrins. […]"}},
  "note": "Read-outs that look alike come from different tables or passages of the source.",
  "data": [
    {"smiles": "NC[C@H]1O[C@@H]2O[C@H]3[C@H](O)[C@@H](O)[C@@H](O[C@H]4[C@H](O)[C@@H](O)[C@@H](O[C@H]5[C@H](O)[C@@H](O)[C@@H](O[C@H]6[C@H](O)[C@@H](O)[C@@H](O[C@H]7[C@H](O)[C@@H](O)[C@@H](O[C@H]8[C@H](O)[C@@H](O)[C@@H](O[C@H]9[C@H](O)[C@@H](O)[C@@H](O[C@H]1[C@H](O)[C@H]2O)O[C@@H]9CN)O[C@@H]8CN)O[C@@H]7CN)O[C@@H]6CN)O[C@@H]5CN)O[C@@H]4CN)O[C@@H]3CN", "note": "[No. 12, Octacis (6-amino-6-deoxy)-γ-cyclodextrin]", "values": [
      {"measurement": "Complement-mediated killing of E69", "setting": "E. coli strain E69 [1]; 15 μM", "value": 21, "unit": "%"},
      {"measurement": "Complement-mediated killing of E69", "setting": "E. coli strain E69 [1]; 100 μM", "value": 51, "unit": "%"},
      {"measurement": "Complement-mediated killing of E69", "setting": "E. coli strain E69 [1]; 1 mM", "value": 84, "unit": "%"},
      {"measurement": "Growth of E69", "setting": "E. coli strain E69 [1]; 1 mM, normal human serum, incubation 4 h", "value": "completely inhibited the growth"},
      {"measurement": "EC50", "setting": "E. coli strain E69 [1]; Escherichia coli, E69, normal human serum, incubation 4 h, n=3, read-out: Concentration required to kill half of the bacteria (EC50)", "value": "3.2 ± 0.5", "unit": "µM"},
      {"measurement": "Effect on survival of E69 in the absence of NHS", "setting": "E. coli strain E69 [1]; compound alone at 100 μM or 1 mM, no normal human serum", "value": "no significant effect"},
      {"measurement": "LPS exposure by median fluorescence intensity", "setting": "E. coli strain E69 [2]; 1 μM, antiserum incubation 2 h", "value": 5.1, "unit": "%"},
      {"measurement": "LPS exposure by percentage of labelled cells", "setting": "E. coli strain E69 [2]; 1 μM, antiserum incubation 2 h", "value": 44, "unit": "%"},
      {"measurement": "LPS exposure by percentage of labelled cells", "setting": "E. coli strain E69 [2]; 50 μM, antiserum incubation 1 h", "value": 36, "unit": "%"},
      {"measurement": "LPS exposure by median fluorescence intensity", "setting": "E. coli strain E69 [2]; 50 μM, antiserum incubation 1 h, relative to CWG281 positive control", "value": 4.9, "unit": "%"},
      {"measurement": "LPS exposure by percentage of labelled cells", "setting": "E. coli strain E69 [2]; 1 mM, antiserum incubation 1 h", "value": 96, "unit": "%"},
      {"measurement": "LPS exposure by median fluorescence intensity", "setting": "E. coli strain E69 [2]; 1 mM, antiserum incubation 1 h, relative to CWG281 positive control", "value": 20, "unit": "%"},
      {"measurement": "Kd", "setting": "mutant Wza ΔP106-A107; ΔP106-A107, 300 mM KCl, 5 mM HEPES, pH 7.5, +5 mV", "value": "0.044 ± 0.025", "unit": "µM"},
      {"measurement": "Kd", "setting": "mutant Wza ΔP106-A107; ΔP106-A107, 2M KCl buffer pH 7.5, +3 mV", "value": "7.8 ± 5.2", "unit": "µM"},
      {"measurement": "Kd", "setting": "mutant Wza Y110G; 300 mM KCl, 5 mM HEPES, pH 7.5, +10 mV", "value": "0.0056 ± 0.0024", "unit": "µM"},
      {"measurement": "Kd", "setting": "mutant Wza Y110G; 2M KCl buffer pH 7.5, +3 mV", "value": "4.7 ± 4.6", "unit": "µM"}
    ]}
  ]
}
